Measurements from ChEMBL document CHEMBL1150678, “Bioactive sterols from the starfish Certonardoa semiregularis” (2003).
≈ marks a conversion by molar mass, not a printed value.

Experiments:
SK-OV-3 = experiment: Cytotoxicity against human SKOV3 cells; type: functional; details: read-out: ED50 (the source's name)
SK-MEL-2 = experiment: Cytotoxicity against human SK-MEL-2 cells; type: functional; details: read-out: ED50 (the source's name)
Escherichia coli [1] = experiment: Antimicrobial activity against Escherichia coli DC2 isolate after 18 hrs; type: functional
Enterococcus faecium = experiment: Antimicrobial activity against Streptococcus faecium MD8b isolate after 18 hrs; type: functional
Streptococcus pyogenes [2] = experiment: Antimicrobial activity against Streptococcus pyogenes 308A isolate after 18 hrs; type: functional
Escherichia coli [3] = experiment: Antimicrobial activity against Escherichia coli 1507E isolate after 18 hrs; type: functional
Pseudomonas aeruginosa [4] = experiment: Antimicrobial activity against Pseudomonas aeruginosa 1771 isolate after 18 hrs; type: functional
A549 = experiment: Cytotoxicity against human A549 cells; type: functional; details: read-out: ED50 (the source's name)
Staphylococcus aureus [5] = experiment: Antimicrobial activity against Staphylococcus aureus SG511 isolate after 18 hrs; type: functional
Staphylococcus aureus [6] = experiment: Antimicrobial activity against Staphylococcus aureus 503 isolate after 18 hrs; type: functional
Pseudomonas aeruginosa [7] = experiment: Antimicrobial activity against Pseudomonas aeruginosa 1771M isolate after 18 hrs; type: functional
Enterobacter cloacae [8] = experiment: Antimicrobial activity against Enterobacter cloacae 1321E after 18 hrs; type: functional
XF498 = experiment: Cytotoxicity against human XF498 cells; type: functional; details: read-out: ED50 (the source's name)
Enterobacter cloacae [9] = experiment: Antimicrobial activity against Enterobacter cloacae P99 after 18 hrs; type: functional
Escherichia coli [10] = experiment: Antimicrobial activity against Escherichia coli 078 isolate after 18 hrs; type: functional
Escherichia coli [11] = experiment: Antimicrobial activity against Escherichia coli TEM isolate after 18 hrs; type: functional
Salmonella typhimurium = experiment: Antimicrobial activity against Salmonella Typhimurium after 18 hrs; type: functional, Salmonella enterica subsp. enterica serovar Typhimurium; details: Salmonella enterica
Staphylococcus aureus [12] = experiment: Antimicrobial activity against Staphylococcus aureus 285 isolate after 18 hrs; type: functional
HCT-15 = experiment: Cytotoxicity against human HCT15 cells; type: functional; details: read-out: ED50 (the source's name)
Pseudomonas aeruginosa [13] = experiment: Antimicrobial activity against Pseudomonas aeruginosa 9027 isolate after 18 hrs; type: functional
Klebsiella oxytoca = experiment: Antimicrobial activity against Klebsiella oxytoca 1082E after 18 hrs; type: functional
Pseudomonas aeruginosa [14] = experiment: Antimicrobial activity against Pseudomonas aeruginosa 1592E isolate after 18 hrs; type: functional
Klebsiella aerogenes = experiment: Antimicrobial activity against Klebsiella aerogenes 1522E after 18 hrs; type: functional
Escherichia coli [15] = experiment: Antimicrobial activity against Escherichia coli DC0 isolate after 18 hrs; type: functional
Streptococcus pyogenes [16] = experiment: Antimicrobial activity against Streptococcus pyogenes 77A isolate after 18 hrs; type: functional

| SMILES | EC50 (SK-OV-3) | EC50 (SK-MEL-2) | MIC (Escherichia coli [1]) | MIC (Enterococcus faecium) | MIC (Streptococcus pyogenes [2]) | MIC (Escherichia coli [3]) | MIC (Pseudomonas aeruginosa [4]) | EC50 (A549) | MIC (Staphylococcus aureus [5]) | MIC (Staphylococcus aureus [6]) | MIC (Pseudomonas aeruginosa [7]) | MIC (Enterobacter cloacae [8]) | EC50 (XF498) | MIC (Enterobacter cloacae [9]) | MIC (Escherichia coli [10]) | MIC (Escherichia coli [11]) | MIC (Salmonella typhimurium) | MIC (Staphylococcus aureus [12]) | EC50 (HCT-15) | MIC (Pseudomonas aeruginosa [13]) | also measured |
| --- | --- | --- | --- | --- | --- | --- | --- | --- | --- | --- | --- | --- | --- | --- | --- | --- | --- | --- | --- | --- | --- |
| C=C(CC[C@@H](C)[C@H]1C[C@H](O)[C@H]2[C@@H]3C[C@@H](O)[C@H]4C[C@@H](O)CC[C@]4(C)[C@H]3CC[C@@]21C)[C@H](C)CO [CERTONARDOSTEROL E] | 4.9 µg/mL (≈ 10.9 µM) | 4.1 µg/mL (≈ 9.14 µM) | > 25 µg/mL | > 25 µg/mL | 25 µg/mL (≈ 55.7 µM) | > 25 µg/mL | > 25 µg/mL | 3.9 µg/mL (≈ 8.69 µM) | > 25 µg/mL | > 25 µg/mL | > 25 µg/mL | > 25 µg/mL | 4.1 µg/mL (≈ 9.14 µM) | > 25 µg/mL | > 25 µg/mL | > 25 µg/mL | > 25 µg/mL | > 25 µg/mL | 4.2 µg/mL (≈ 9.36 µM) | > 25 µg/mL | MIC (Klebsiella oxytoca): > 25 µg/mL; MIC (Pseudomonas aeruginosa [14]): > 25 µg/mL; MIC (Klebsiella aerogenes): > 25 µg/mL; MIC (Escherichia coli [15]): > 25 µg/mL; MIC (Streptococcus pyogenes [16]): > 25 µg/mL |
| C=C(CC[C@@H](C)[C@H]1C[C@@H](O)[C@@H]2[C@]1(C)CC[C@@H]1[C@@]3(C)CC[C@H](O)[C@H](O)[C@@H]3[C@@H](O)C[C@]12O)[C@H](C)CO [CERTONARDOSTEROL A] | 7.3 µg/mL (≈ 15.2 µM) | 4.1 µg/mL (≈ 8.53 µM) | > 25 µg/mL | > 25 µg/mL | 25 µg/mL (≈ 52 µM) | > 25 µg/mL | 25 µg/mL (≈ 52 µM) | 3.1 µg/mL (≈ 6.45 µM) | > 25 µg/mL | > 25 µg/mL | 25 µg/mL (≈ 52 µM) | > 25 µg/mL | 4.4 µg/mL (≈ 9.15 µM) | > 25 µg/mL | > 25 µg/mL | > 25 µg/mL | > 25 µg/mL | > 25 µg/mL | 4.5 µg/mL (≈ 9.36 µM) | > 25 µg/mL | MIC (Klebsiella oxytoca): > 25 µg/mL; MIC (Pseudomonas aeruginosa [14]): > 25 µg/mL; MIC (Klebsiella aerogenes): > 25 µg/mL; MIC (Escherichia coli [15]): > 25 µg/mL; MIC (Streptococcus pyogenes [16]): > 25 µg/mL |
| C=C(CC[C@@H](C)[C@H]1C[C@@H](O)[C@@H]2[C@]1(C)CC[C@@H]1[C@@]3(C)CC[C@H](O)C[C@@H]3[C@@H](O)C[C@]12O)[C@H](C)CO [CERTONARDOSTEROL C] | 20.2 µg/mL (≈ 43.5 µM) | 15.1 µg/mL (≈ 32.5 µM) | > 25 µg/mL | > 25 µg/mL | 25 µg/mL (≈ 53.8 µM) | > 25 µg/mL | 25 µg/mL (≈ 53.8 µM) | 14.1 µg/mL (≈ 30.3 µM) | > 25 µg/mL | > 25 µg/mL | 25 µg/mL (≈ 53.8 µM) | > 25 µg/mL | 13.3 µg/mL (≈ 28.6 µM) | > 25 µg/mL | > 25 µg/mL | > 25 µg/mL | > 25 µg/mL | > 25 µg/mL | 23.9 µg/mL (≈ 51.4 µM) | > 25 µg/mL | MIC (Klebsiella oxytoca): > 25 µg/mL; MIC (Pseudomonas aeruginosa [14]): > 25 µg/mL; MIC (Klebsiella aerogenes): > 25 µg/mL; MIC (Escherichia coli [15]): > 25 µg/mL; MIC (Streptococcus pyogenes [16]): > 25 µg/mL |
| CC(/C=C/[C@@H](C)[C@H]1C[C@@H](O)[C@H]2[C@@H]3C[C@H](O)[C@H]4C[C@@H](O)CC[C@]4(C)[C@H]3CC[C@@]21C)CO (stereo not given in full) [CERTONARDOSTEROL H] | 9.4 µg/mL (≈ 22.3 µM) | 6.4 µg/mL (≈ 15.2 µM) | > 25 µg/mL | > 25 µg/mL | 25 µg/mL (≈ 59.4 µM) | > 25 µg/mL | 25 µg/mL (≈ 59.4 µM) | 7.1 µg/mL (≈ 16.9 µM) | > 25 µg/mL | > 25 µg/mL | 25 µg/mL (≈ 59.4 µM) | > 25 µg/mL | 8.6 µg/mL (≈ 20.4 µM) | > 25 µg/mL | > 25 µg/mL | > 25 µg/mL | > 25 µg/mL | > 25 µg/mL | 10.6 µg/mL (≈ 25.2 µM) | > 25 µg/mL | MIC (Klebsiella oxytoca): > 25 µg/mL; MIC (Pseudomonas aeruginosa [14]): > 25 µg/mL; MIC (Klebsiella aerogenes): > 25 µg/mL; MIC (Escherichia coli [15]): > 25 µg/mL; MIC (Streptococcus pyogenes [16]): > 25 µg/mL |
| C/C(=C\[C@@H](C)[C@H]1C[C@@H](O)[C@@H]2[C@]1(C)CC[C@@H]1[C@@]3(C)CC[C@H](O)C[C@@H]3[C@@H](O)C[C@]12O)[C@H](C)[C@@H](C)CO [CERTONARDOSTEROL I] | 8.8 µg/mL (≈ 18.4 µM) | 5.3 µg/mL (≈ 11.1 µM) | > 25 µg/mL | > 25 µg/mL | 25 µg/mL (≈ 52.2 µM) | > 25 µg/mL | 12.5 µg/mL (≈ 26.1 µM) | 5.1 µg/mL (≈ 10.7 µM) | > 25 µg/mL | > 25 µg/mL | 25 µg/mL (≈ 52.2 µM) | > 25 µg/mL | 7.3 µg/mL (≈ 15.2 µM) | > 25 µg/mL | > 25 µg/mL | > 25 µg/mL | > 25 µg/mL | > 25 µg/mL | 6.3 µg/mL (≈ 13.2 µM) | > 25 µg/mL | MIC (Klebsiella oxytoca): > 25 µg/mL; MIC (Pseudomonas aeruginosa [14]): > 25 µg/mL; MIC (Klebsiella aerogenes): > 25 µg/mL; MIC (Escherichia coli [15]): > 25 µg/mL; MIC (Streptococcus pyogenes [16]): 25 µg/mL (≈ 52.2 µM) |
